# Measured values reported in US11312804B2, “Polymerizable compound, polymerizable composition, polymer, and photoresist composition” (JNC CORPORATION, priority 2018, dated 2022).
# Test: Water solubility test: extraction from water into ethyl acetate, weight of residue
# Assay type: physicochemical
# Details: for weight of the residue: 0.500 g dissolved in 10 mL water at room temperature, 10 mL ethyl acetate added, stirred 10 min, organic layer dried and concentrated
# Procedure: In 10 mL of water, 0.500 g of the compound represented by formula (14a-x) was dissolved at room temperature, and 10 mL of ethyl acetate was added thereto, and the resulting mixture was stirred for 10 min, and then the organic layer was dried over anhydrous sodium sulfate. The desiccant was filtered off, and then the filtrate was concentrated under reduced pressure. The weight of the residue was 0.101 g.
# In 10 mL of water, 0.500 g of a compound represented by formula (15), namely, mevalonolactone was dissolved at room temperature, and 10 mL of ethyl acetate was added thereto, and the resulting mixture was stirred for 10 min, and then the organic layer was dried over anhydrous sodium sulfate. The desiccant was filtered off, and then the filtrate was concentrated under reduced pressure. Then weight of the residue was 0.080 g.
SMILES,weight of the residue [g],water solubility compared with the compound used in Comparative Example 1 (conclusion from ethyl acetate extraction test)
"CC1(O)CCOC(=O)C1 (stereo not drawn) [Compound 15, mevalonolactone, reference compound]",0.080,
"C[C@H]1C(=O)OCC[C@@]1(C)O [Compound 14a-x, α-methyl-mevalonolactone]",0.101,lower water solubility
